Measurements as given in patent publication US12721832B2, “Anti-senescence plant polyphenol drug downregulating senescence-related secretory phenotype and use thereof” (BYHEALTH CO., LTD., priority 2021, dated 2026).

Tests used:
senescent PSC27 cells = test: SA-β-Gal staining of PSC27 under increasing PCC1 concentration; type: cell-based, human
Procedure: Senescence-associated (3-galactosidase (SA-β-Gal) staining was performed following a previously reported procedure (Debacq-Chainiaux et al., 2009). Briefly, cells in culture dishes were washed with PBS and fixed at room temperature. Cells were fixed in 2% formaldehyde and 0.2% glutaraldehyde for 3 minutes. SA-β-Gal was used for staining with freshly prepared staining solution overnight at 37° C. Images were taken on the next day and the percentage of positive cells per unit area was calculated.

PSC27 cells [1] = test: Population doubling test of PSC27; type: cell-based, human
Procedure: The cells were damaged by BLEO at passage 10 (p10), and then PCC1 was added to the medium at day 8. The effect of PCC1 on cell proliferation potential is determined by comparative analysis of the population doubling (PD) of CTRL group, BLEO group, PCC1 group and BLEO/PCC1 group. ^, P>0.05; ***, P<0.001.

PSC27 cells [2] = test: Flow cytometry of apoptosis of PSC27; type: cell-based, human
Source text: Q2, distribution area of early apoptotic cells; Q3, distribution area of late apoptotic cells.

[3] = tested on: PC3/PSC27 xenograft tumors; test: PC3/PSC27 xenograft tumor terminal volume in NOD/SCID mice; type: in vivo; conditions: end of 8th week
Source text: Every two weeks was a dosing cycle, and MIT (mitoxantrone) was intraperitoneally administered to the mice on the first day of the 3rd/5th/7th weeks. From the first day of the 5th week, the mice were intraperitoneally administrated with PCC1, once a week. After the 8-week course of treatment, the mice were dissected for pathological identification and expression analysis.
Chemotherapeutic drug MIT alone or together with anti-senescence drug PCC1 was used to administer mice, and after the 8th week, the tumor size of each group was compared and analyzed.
All experimental mouse experiments were carried out in strict accordance with the relevant regulations of the Institutional Animal Care and Use Committee (IACUC), Shanghai Institutes for Biological Sciences, Chinese Academy of Sciences. Immunodeficient mice (NOD-SCID mice, ICR) (body weight about 25 g) aged 6-8 weeks were used for animal experiments related to the present patent. Stromal cells PSC27 and epithelial cells PC3 were mixed at a predetermined ratio of 1:4, and each graft contained 1.25×10^6 cells for tissue remodeling. The xenograft tumors were implanted into mice by subcutaneous transplantation, and the animals were euthanized 8 weeks after the end of the transplantation surgery. Tumor volume was calculated according to the following formula: V=(π/6)×[…] (V, volume; l, length; w, width).
(§1) In a preclinical treatment trial, subcutaneously transplanted mice were fed with a standard experimental diet, after 2 weeks chemotherapy drugs mitoxantrone (MIT, dose: 0.2 mg/kg) and/or procyanidin C1 (PCC1) (500 μl, dose: 10 mg/kg) via intraperitoneal administration. The time points were: the former was administrated on the first day of the 3rd, 5th and 7th weeks, and the latter was administrated on the first day of the 5th and 7th weeks. A total of 3 cycles of MIT administration were carried out throughout the course of treatment, and each cycle lasted for 2 weeks. After the course of treatment, mouse tumors were harvested for volume measurement and histological analysis. Each mouse cumulatively received 0.6 mg/kg body weight of MIT and […] body weight of PCC1. In order to cause systemic expression of SASP factor induced by chemotherapy, MIT was administered to mice through […] according to the above steps and sequence, but the dose was reduced to 0.1 mg/kg body weight/each time (the cumulative dose of MIT received in the whole course of treatment was 0.3 mg/kg body weight) to reduce drug-related toxicity. The chemotherapy experiment ended at the end of the 8th week, and the mice were dissected immediately after sacrifice, and the xenograft tumors were collected and used for pathological system analysis.

[4] = tested on: senescent cells in tumor tissue; test: SA-β-Gal staining of tumor tissue in PC3/PSC27 tumor-bearing mice; type: in vivo; conditions: PCC1 administered to MIT-treated animals
Procedure: Representative pictures after SA-β-Gal staining. Scale bar, 100 μm.
A P>0.05; **, P<0.01; ***, P<0.001.
as §1, with “The chemotherapy experiment ended at the end of the 8th week, and the mice were dissected immediately after sacrifice, and the xenograft tumors were collected and used for pathological system analysis.” left out

[5] = tested on: PC3/PSC27 xenograft tumors; test: Disease-free survival of tumor-bearing NOD/SCID mice; type: in vivo; conditions: PCC1 alone
Source text: When the tumor volume in the vehicle, MIT, PCC1 and MIT/PCC1 groups exceeds 2000 mm^3, it is considered that severe disease has occurred, and the mice need to be killed in time and the tumor bearing status should be detected. ^, P>0.05; **, P<0.01.
We next compared the survival of animals in different drug-treated groups, primarily in a time-prolonged manner to assess the consequences of tumor progression. In this preclinical cohort, animals were monitored for prostate tumor growth, and severe disease was judged to have occurred once the […] tumor burden in mice was prominent (size ≥2000 mm^3), which was a method used for assessing progression of tumors and other diseases in certain conditions.

aged C57BL/6 mice = test: Post-mortem pathological examination of aged mice; type: in vivo; conditions: end of life
Procedure: The researchers checked the cages daily and removed dead mice from the cages. Within 24 hours of animal death, cadavers (abdominal cavity, thoracic cavity, and skull) were opened and kept separately in 10% formalin for at least 7 days. Decomposed or destroyed bodies were excluded. The preserved cadavers were transported to the dedicated autopsy site for pathological examination. Tumor burden (sum of different types of tumors per mouse), disease burden (sum of different histopathological changes in major organs per mouse), severity of each lesion and inflammation (lymphocyte infiltration) were assessed.

[6] = PCC1 administered to mice treated with MIT

Oc1cc(O)c2c(c1)O[C@H](c1ccc(O)c(O)c1)[C@H](O)[C@H]2c1c(O)cc(O)c2c1O[C@H](c1ccc(O)c(O)c1)[C@H](O)[C@H]2c1c(O)cc(O)c2c1O[C@H](c1ccc(O)c(O)c1)[C@H](O)C2 [PCC1, procyanidin C1]
senescent cells remaining (senescent PSC27 cells; 150 μM PCC1, 80% staining positive without drug): 20%
killing effect at 200 μM versus 150 μM (senescent PSC27 cells; 200 μM PCC1): not further enhanced
concentration at which killing effect reached a threshold (senescent PSC27 cells; senescent PSC27): 150 µM
concentration from which senescent cells are eliminated (SA-β-Gal staining) (senescent PSC27 cells; senescent PSC27, 0-200 μM): 50 µM
population doubling (PD) ability (PSC27 cells [1]; BLEO and PCC1 combined treatment vs BLEO group): significantly increased
effect on PD of proliferating cells (PSC27 cells [1]; PCC1 alone, proliferating cells): did not appear to affect
change of proliferating cells (PSC27 cells [2]): not obvious
proportion of apoptosis in senescent PSC27 cells (PSC27 cells [2]): significantly increased
viability of senescent PSC27 cells (PSC27 cells [2]): significantly reduced
reduction in tumor volume compared with MIT [3, 6]: 55.2%
reduction in tumor volume compared with placebo treatment [3, 6]: 74.9%
reduction in tumor size compared to placebo ([3]; single agent, i.p.): did not cause tumor shrinkage
senescent cells within lesions of chemotherapeutic (MIT) animals [4]: substantially depleted most senescent cells
survival benefit of single agent [5]: only a marginal extension of survival
prevalence of several age-related diseases and tumor burden at autopsy vs vehicle (aged C57BL/6 mice): did not show statistical differences
